Two compounds from ChEMBL document CHEMBL3593183, “Polycyclic Polyprenylated Xanthones from Symphonia globulifera: Isolation and Biomimetic Electrosynthesis” (J Nat Prod, 2015) can be followed below.

This test concerns HCT-116. The test is described as follows: Cytotoxicity against human HCT116 cells after 72 hrs by MTS assay. Format: functional, cell-based. The note with it: HCT-116, 72 h.

`CC(C)=CCC[C@]1(C)[C@@H](CC=C(C)C)C[C@@]2(CC=C(C)C)C(=O)c3c(oc4cc(O)c(O)cc4c3=O)[C@]1(CC=C(C)C)C2=O`: half-maximal inhibition (IC50) was put at 8 µM. With `CC(C)=CCC[C@]1(C)[C@@H](CC=C(C)C)C[C@]2(CC=C(C)C)C(=O)[C@@]1(CC=C(C)C)C(=O)c1c2oc2cc(O)c(O)cc2c1=O`, the IC50 is 3 µM.

As a reminder, the IC50 is the point on the concentration scale where inhibition reaches its midpoint. A higher IC50 goes with a need for much substance.
